# Experiments:
# Erysiphae graminis = assay: Fungicidal activity against barley powdery mildew (BPM) disease, control value; type: in vivo
# [1] = system: Pyricularia oryzae Carvara KA301; assay: whole plant or invertebrate; type: in vivo
# Puccinia recondita = assay: Fungicidal activity against wheat leaf rust (WLR) disease, control value; type: in vivo
# Botrytis cinerae = assay: Fungicidal activity against cucumber gray mold rot (CGM) disease, control value; type: in vivo
# Phytophthora infestans = assay: whole plant or invertebrate; type: in vivo
# Rhizoctonia solani AG-1 = assay: Fungicidal activity against rice sheath blight (RSB) disease, control value
# [2] = Pyricularia oryzae, read-out: RCB control value (C.V.)
# [3] = Phytophthora infestans, in Solanum lycopersicum, read-out: TLB control value (C.V.)
# [4] = Rhizoctonia solani, AG1, in Oryza sativa, read-out: RSB control value (C.V.)
# [5] = 100 ppm, cucumber gray mold rot
compound,measurement,setting,value
"CO/N=C(/C(=O)OC)c1ccccc1COc1ccc(C=C(Cl)Cl)cc1C [Example 41, methyl-(E)-2-(2-((4-(2,2-dichlorovinyl)-2-methylphenoxy)methyl)phenyl)-2-methoxyiminoacetate]",pest or weed control at 2 ppm,"Erysiphae graminis; Hordeum vulgare, 168 h, 2 ppm, barley powdery mildew, read-out: BPM control value (C.V.)",100%
same,pest or weed control at 10 ppm,"Erysiphae graminis; Hordeum vulgare, 168 h, 10 ppm, barley powdery mildew, read-out: BPM control value (C.V.)",100%
same,pest or weed control at 50 ppm,"Erysiphae graminis; Hordeum vulgare, 168 h, 50 ppm, barley powdery mildew, read-out: BPM control value (C.V.)",100%
same,pest or weed control at 100 ppm,"Erysiphae graminis; Hordeum vulgare, 168 h, 100 ppm, barley powdery mildew, read-out: BPM control value (C.V.)",100%
same,pest or weed control at 2 ppm,[1]; [2],100%
same,pest or weed control at 10 ppm,[1]; [2],100%
same,pest or weed control at 50 ppm,[1]; [2],100%
same,pest or weed control at 100 ppm,[1]; [2],100%
same,pest or weed control at 2 ppm,"Puccinia recondita; 2 ppm, wheat leaf rust, read-out: WLR control value (C.V.)",100%
same,pest or weed control at 10 ppm,"Puccinia recondita; 10 ppm, wheat leaf rust, read-out: WLR control value (C.V.)",100%
same,pest or weed control at 50 ppm,"Puccinia recondita; 50 ppm, wheat leaf rust, read-out: WLR control value (C.V.)",100%
same,pest or weed control at 100 ppm,"Puccinia recondita; 100 ppm, wheat leaf rust, read-out: WLR control value (C.V.)",100%
same,pest or weed control at 50 ppm,"Botrytis cinerae; Botrytis, 50 ppm, cucumber gray mold rot, read-out: CGM control value (C.V.)",75%
same,pest or weed control at 100 ppm,"Botrytis cinerae; Botrytis, 100 ppm, cucumber gray mold rot, read-out: CGM control value (C.V.)",90%
same,pest or weed control at 2 ppm,Phytophthora infestans; [3],100%
same,pest or weed control at 10 ppm,Phytophthora infestans; [3],100%
same,pest or weed control at 50 ppm,Phytophthora infestans; [3],100%
same,pest or weed control at 100 ppm,Phytophthora infestans; [3],100%
same,pest or weed control at 2 ppm,Rhizoctonia solani AG-1; [4],100%
same,pest or weed control at 10 ppm,Rhizoctonia solani AG-1; [4],100%
same,pest or weed control at 50 ppm,Rhizoctonia solani AG-1; [4],100%
same,pest or weed control at 100 ppm,Rhizoctonia solani AG-1; [4],100%
CNC(=O)/C(=N/OC)c1ccccc1COc1c(OC)ccc(C=C(Cl)Cl)c1Br [Example 52],BPM control value (C.V.),"Erysiphae graminis; 2 ppm, barley powdery mildew",99%
same,BPM control value (C.V.),"Erysiphae graminis; 10 ppm, barley powdery mildew",100%
same,BPM control value (C.V.),"Erysiphae graminis; 50 ppm, barley powdery mildew",100%
same,BPM control value (C.V.),"Erysiphae graminis; 100 ppm, barley powdery mildew",100%
same,RCB control value (C.V.),"[1]; 2 ppm, rice blast",70%
same,RCB control value (C.V.),"[1]; 10 ppm, rice blast",100%
same,RCB control value (C.V.),"[1]; 50 ppm, rice blast",100%
same,RCB control value (C.V.),"[1]; 100 ppm, rice blast",100%
same,WLR control value (C.V.),"Puccinia recondita; 2 ppm, wheat leaf rust",100%
same,WLR control value (C.V.),"Puccinia recondita; 10 ppm, wheat leaf rust",100%
same,WLR control value (C.V.),"Puccinia recondita; 50 ppm, wheat leaf rust",100%
same,WLR control value (C.V.),"Puccinia recondita; 100 ppm, wheat leaf rust",100%
same,CGM control value (C.V.),Botrytis cinerae; [5],45%
same,TLB control value (C.V.),"Phytophthora infestans; 2 ppm, tomato late blight",95%
same,TLB control value (C.V.),"Phytophthora infestans; 10 ppm, tomato late blight",100%
same,TLB control value (C.V.),"Phytophthora infestans; 50 ppm, tomato late blight",100%
same,TLB control value (C.V.),"Phytophthora infestans; 100 ppm, tomato late blight",100%
same,RSB control value (C.V.),"Rhizoctonia solani AG-1; 2 ppm, rice sheath blight",95%
same,RSB control value (C.V.),"Rhizoctonia solani AG-1; 10 ppm, rice sheath blight",100%
same,RSB control value (C.V.),"Rhizoctonia solani AG-1; 50 ppm, rice sheath blight",100%
same,RSB control value (C.V.),"Rhizoctonia solani AG-1; 100 ppm, rice sheath blight",100%
"CNC(=O)/C(=N/OC)c1ccccc1CON=C(C)c1cccc(C=C(Cl)Cl)c1 [Example 20, (E)-2-[[[[[2-[3-(2,2-dichlorovinyl)phenyl](1-methyl)methylidene]amino]oxy]methyl]phenyl]-2-methoxyimino-N-methylacetamide]",BPM control value (C.V.),"Erysiphae graminis; 2 ppm, barley powdery mildew",100%
same,BPM control value (C.V.),"Erysiphae graminis; 10 ppm, barley powdery mildew",100%
same,BPM control value (C.V.),"Erysiphae graminis; 50 ppm, barley powdery mildew",100%
same,BPM control value (C.V.),"Erysiphae graminis; 100 ppm, barley powdery mildew",100%
same,RCB control value (C.V.),"[1]; 2 ppm, rice blast",90%
same,RCB control value (C.V.),"[1]; 10 ppm, rice blast",97%
same,RCB control value (C.V.),"[1]; 50 ppm, rice blast",100%
same,RCB control value (C.V.),"[1]; 100 ppm, rice blast",100%
same,WLR control value (C.V.),"Puccinia recondita; 2 ppm, wheat leaf rust",30%
same,WLR control value (C.V.),"Puccinia recondita; 10 ppm, wheat leaf rust",90%
same,WLR control value (C.V.),"Puccinia recondita; 50 ppm, wheat leaf rust",98%
same,WLR control value (C.V.),"Puccinia recondita; 100 ppm, wheat leaf rust",100%
same,CGM control value (C.V.),Botrytis cinerae; [5],74%
same,TLB control value (C.V.),"Phytophthora infestans; 2 ppm, tomato late blight",98%
same,TLB control value (C.V.),"Phytophthora infestans; 10 ppm, tomato late blight",100%
same,TLB control value (C.V.),"Phytophthora infestans; 50 ppm, tomato late blight",100%
same,TLB control value (C.V.),"Phytophthora infestans; 100 ppm, tomato late blight",100%
same,RSB control value (C.V.),"Rhizoctonia solani AG-1; 100 ppm, rice sheath blight",75%
"CO/C=C(/C(=O)OC)c1ccccc1Oc1cc(Oc2ccccc2C#N)ncn1 [Azoxystrobin, reference compound]",BPM control value (C.V.),Erysiphae graminis; 0.4 ppm,95%
same,BPM control value (C.V.),Erysiphae graminis; 2 ppm,100%
same,BPM control value (C.V.),Erysiphae graminis; 10 ppm,100%
same,BPM control value (C.V.),Erysiphae graminis; 50 ppm,100%
same,RCB control value (C.V.),[1]; 0.4 ppm,30%
same,RCB control value (C.V.),[1]; 2 ppm,90%
same,RCB control value (C.V.),[1]; 10 ppm,100%
same,RCB control value (C.V.),[1]; 50 ppm,100%
same,WLR control value (C.V.),Puccinia recondita; 0.4 ppm,95%
same,WLR control value (C.V.),Puccinia recondita; 2 ppm,100%
same,WLR control value (C.V.),Puccinia recondita; 10 ppm,100%
same,WLR control value (C.V.),Puccinia recondita; 50 ppm,100%
same,CGM control value (C.V.),Botrytis cinerae; 50 ppm,40%
same,TLB control value (C.V.),Phytophthora infestans; 0.4 ppm,50%
same,TLB control value (C.V.),Phytophthora infestans; 2 ppm,90%
same,TLB control value (C.V.),Phytophthora infestans; 10 ppm,98%
same,TLB control value (C.V.),Phytophthora infestans; 50 ppm,100%
same,RSB control value (C.V.),Rhizoctonia solani AG-1; 0.4 ppm,67%
same,RSB control value (C.V.),Rhizoctonia solani AG-1; 2 ppm,98%
same,RSB control value (C.V.),Rhizoctonia solani AG-1; 10 ppm,100%
same,RSB control value (C.V.),Rhizoctonia solani AG-1; 50 ppm,100%
"CO/N=C(/C(=O)OC)c1ccccc1CON=C(C)c1ccc(C=C(Cl)Cl)cc1 [Example 21, methyl-(E)-2-[[[[[2-[4-(2,2-dichlorovinyl)phenyl](1-methyl)methylidene]amino]oxy]methyl]phenyl]-2-methoxyiminoacetate]",BPM control value (C.V.),"Erysiphae graminis; 2 ppm, barley powdery mildew",20%
same,BPM control value (C.V.),"Erysiphae graminis; 10 ppm, barley powdery mildew",50%
same,BPM control value (C.V.),"Erysiphae graminis; 50 ppm, barley powdery mildew",95%
same,BPM control value (C.V.),"Erysiphae graminis; 100 ppm, barley powdery mildew",95%
same,RCB control value (C.V.),"[1]; 2 ppm, rice blast",30%
same,RCB control value (C.V.),"[1]; 10 ppm, rice blast",90%
same,RCB control value (C.V.),"[1]; 50 ppm, rice blast",100%
same,RCB control value (C.V.),"[1]; 100 ppm, rice blast",100%
same,WLR control value (C.V.),"Puccinia recondita; 2 ppm, wheat leaf rust",40%
same,WLR control value (C.V.),"Puccinia recondita; 10 ppm, wheat leaf rust",90%
same,WLR control value (C.V.),"Puccinia recondita; 50 ppm, wheat leaf rust",100%
same,WLR control value (C.V.),"Puccinia recondita; 100 ppm, wheat leaf rust",100%
same,CGM control value (C.V.),Botrytis cinerae; [5],50%
same,TLB control value (C.V.),"Phytophthora infestans; 2 ppm, tomato late blight",0%
same,TLB control value (C.V.),"Phytophthora infestans; 10 ppm, tomato late blight",35%
same,TLB control value (C.V.),"Phytophthora infestans; 50 ppm, tomato late blight",95%
same,TLB control value (C.V.),"Phytophthora infestans; 100 ppm, tomato late blight",98%
same,RSB control value (C.V.),"Rhizoctonia solani AG-1; 100 ppm, rice sheath blight",60%

# Reference: patent publication US8410302B2, “Methoxyimino compounds and fungicide composition comprising same” (Kyung Nong Corporation, priority 2007, dated 2013)
